According to patent US10138292B2, “Cell culture medium” (BIOLAMINA AB, priority 2010, dated 2018):

Tests used:
hES cells [1] = assay: Inhibition of survival assay on LN-521; type: cell-based, human; conditions: medium contained bFGF
Method: (§1) The survival assay was performed as described for the cell adhesion assay above, except that the cells were left in the cell incubator for 24 hours. For inhibition of survival assay, the cells were kept in a medium with function blocking antibodies at the concentrations recommended by the manufacturer or pathway inhibitors at concentrations indicated in the text for 30 minutes, and then plated on the coated dishes. All the experiments were performed in quadruplicate.

[2] = system: PI3K/Akt and MEK1/Erk pathways; assay: Western blot with antibodies to phospho-Akt / phospho-Erk; type: cell-based, human; conditions: cells collected one hour after plating on LN-521
Method: HS 181 cells were trypsinized into single cell suspension as described above. For inhibition experiments, the cells were kept in O3 medium with blocking antibodies or pathway inhibitors for 30 minutes and then 450K cells were plated on 35 mm dishes precoated with the appropriate matrix coating. For other experiments, same number of cells was plated directly after trypsinization. In all cases the cells were allowed to spread for 1 hour at 37° C., 5% CO2. After two washings in ice-cold PBS, the plates with cells were snap frozen in liquid nitrogen and stored at −80° C. To prepare samples for western blots and ELISA, the plates were slowly thawed and kept on ice with 100-150 μl of lysis buffer (50 mM Tris-HCl, pH7.5, 150 mM NaCl, 0.5% deoxycholate, 0.5% SDS, 1% Triton X-100, 1% Igepal, Complete™ (Roche) and Phospho-Stop™ (Roche)) on top. Then, the cells were scraped, pipetted and sheared through a 27G ¾″ needle. After that, the cell pellets were clarified by centrifugation at 16,100 rcf for 15 minutes at 4° C. For western blots, 4-12% gradient gels were used for SDS electrophoresis and the proteins were transferred to PVDF membranes. The membrane was hybridized with the antibody of interest according to the manufacturer's instructions. […] For the densitometry analysis the films were scanned at 2,400 dpi and analyzed by the Chemilmager5500 program (1D-Multi Line densitometry mode). […]

human ES cells [3] = assay: Cell adhesion / single cell survival 1 day after plating (Example 1); type: cell-based; conditions: for cells remaining attached / surviving 24 hours after plating: completely dissociated H5181 cells, O3 medium without any additives, no ROCK inhibitor
Method: (§2) Ninety-six-well tissue cell culture plates were coated overnight at 4° C. with sterile solutions of the ECM proteins mouse LN-111 (Invitrogen), human recombinant LN-511, and human recombinant LN-521, all at a concentration of 30 μg/ml (5 μg/cm^2). For control cells, BD Matrigel™ hESC qualified (BD Biosciences) was used according to the manufacturer's instructions.
(§3) The assay was performed as described (Extracellular Matrix Protocols, 2000). Briefly, 96-well plates were coated by extracellular matrix proteins as described above and blocked by O3 medium containing bovine serum albumin. The ES cells were plated at a cell density of 600 cell/mm^2 upon extracellular matrix-coated plates and were left to adhere for either 1 hour or 1 day at the cell incubator. Non-adherent cells were washed away, and adherent cells were fixed for 20 min by 5% glutaraldehyde, stained by 0.1% Crystal Violet.

hES cells [4] = assay: Cell survival assay, 24 hours (Example 2); type: cell-based, human; conditions: for survival after 24 hours: dissociated hES cells; for survival 24 hours after plating: single cell suspension, O3 medium, absence of ROCK inhibitor
Method: as §1
Pluripotent hES cells express α1, α5, β1, β2 and γ1 laminin chains. To compare the adhesion and clonal survival of hES cells plated from single cell suspension to different coating substrata, hES cells growing as monolayers on LN-511 or as clusters on a feeder layer were trypsinized into single cell suspension in O3 medium and plated on cell culture dishes coated with Matrigel, LN-111, LN-511, LN-521 or a mixture of LN-511 and LN-521, in the absence or presence of a ROCK inhibitor (Y-27632) and analyzed after 24 hours.

human ES cells [5] = assay: Cell adhesion assay, 1 hour (Example 1); type: cell-based; conditions: O3 medium without any additives, without Y-27632
Method: as §2, §3

[6] = system: human embryonic stem cells; assay: Survival of dissociated human embryonic stem cells one day after plating on precoated dishes; type: cell-based; conditions: single cell suspension, O3 medium, 30 Kcells/cm^2
Text: In other aspects, the present disclosure provides a new material, isolated laminin-521, which permits human embryonic stem cell survival after dissociation into single cell suspension. The stem cells were dissociated into single cell suspension by Trypsin-EDTA treatment, pelleted by centrifugation, resuspended into O3 medium, filtered through a 40 μm sieve, and plated at a density of 30 Kcells/cm^2 on cell culture dishes precoated by either isolated laminin-521, laminin-511, or Matrigel. After one day in culture, the cells plated on Matrigel died, as is known in the art.

hES cells [7] = assay: Cell adhesion assay, 1 hour (Example 2); type: cell-based, human; conditions: not shown
Method: Tissue cell culture plates were coated overnight at 4° C. with sterile solutions of the ECM proteins, such as human recombinant LN-521, all at a concentration of 30 μg/ml (5 μg/cm^2). Control plates were coated with Matrigel according to the STEMCELL Technologies' instructions. Prior to use, dishes were pre-warmed in an incubator for one hour after which prewarmed O3 medium was added without additional washing of the dish. After applying a fresh LN-521 solution to a new dish, the remaining LN-521 solution could be used at least once more. All the adhesion, survival, and inhibition of survival experiments were carried out using fresh coating materials.
Briefly, 96-well plates were coated by extracellular matrix proteins as described above and blocked by O3 medium containing bovine serum albumin. The ES cells were plated at cell density of 50,000 cells/cm^2 onto extracellular matrix-coated plates and left to adhere for 1 hour in a cell incubator. After that the plates were washed 3 times with the medium to remove the non-adherent cells, and then the adherent cells were fixed for 20 minutes by 5% glutaraldehyde, stained by 0.1% Crystal Violet. (Kebo Lab, Spanga, Sweden, http://www.kebolab.se). After one hour and 3 washes with water, Crystal Violet was extracted with 10% acetic acid and quantified by measuring optical density at 570 nm. All the experiments were performed in quadruplicate.

[8] = system: phosphorylated myosin light chain (P-MLC); assay: Western blot of phosphorylated myosin light chain; type: cell-based, human; conditions: one and six hours after plating
Method: HS 181 cells were trypsinized into single cell suspension as described above. For inhibition experiments, the cells were kept in O3 medium with blocking antibodies or pathway inhibitors for 30 minutes and then 450K cells were plated on 35 mm dishes precoated with the appropriate matrix coating. For other experiments, same number of cells was plated directly after trypsinization. […] After two washings in ice-cold PBS, the plates with cells were snap frozen in liquid nitrogen and stored at −80° C. To prepare samples for western blots and ELISA, the plates were slowly thawed and kept on ice with 100-150 μl of lysis buffer (50 mM Tris-HCl, pH7.5, 150 mM NaCl, 0.5% deoxycholate, 0.5% SDS, 1% Triton X-100, 1% Igepal, Complete™ (Roche) and Phospho-Stop™ (Roche)) on top. Then, the cells were scraped, pipetted and sheared through a 27G ¾″ needle. After that, the cell pellets were clarified by centrifugation at 16,100 rcf for 15 minutes at 4° C. For western blots, 4-12% gradient gels were used for SDS electrophoresis and the proteins were transferred to PVDF membranes. The membrane was hybridized with the antibody of interest according to the manufacturer's instructions. Chemoluminescent HRP-substrate from Amersham Biosciences was used for visualization. For the densitometry analysis the films were scanned at 2,400 dpi and analyzed by the Chemilmager5500 program (1D-Multi Line densitometry mode). […]

Integrin α6β1 = Integrin α6β1 (Homo sapiens, UniProt P05556+P23229); conditions: cited from earlier work
Chain of Integrin α6β1 (P23229 24-1130): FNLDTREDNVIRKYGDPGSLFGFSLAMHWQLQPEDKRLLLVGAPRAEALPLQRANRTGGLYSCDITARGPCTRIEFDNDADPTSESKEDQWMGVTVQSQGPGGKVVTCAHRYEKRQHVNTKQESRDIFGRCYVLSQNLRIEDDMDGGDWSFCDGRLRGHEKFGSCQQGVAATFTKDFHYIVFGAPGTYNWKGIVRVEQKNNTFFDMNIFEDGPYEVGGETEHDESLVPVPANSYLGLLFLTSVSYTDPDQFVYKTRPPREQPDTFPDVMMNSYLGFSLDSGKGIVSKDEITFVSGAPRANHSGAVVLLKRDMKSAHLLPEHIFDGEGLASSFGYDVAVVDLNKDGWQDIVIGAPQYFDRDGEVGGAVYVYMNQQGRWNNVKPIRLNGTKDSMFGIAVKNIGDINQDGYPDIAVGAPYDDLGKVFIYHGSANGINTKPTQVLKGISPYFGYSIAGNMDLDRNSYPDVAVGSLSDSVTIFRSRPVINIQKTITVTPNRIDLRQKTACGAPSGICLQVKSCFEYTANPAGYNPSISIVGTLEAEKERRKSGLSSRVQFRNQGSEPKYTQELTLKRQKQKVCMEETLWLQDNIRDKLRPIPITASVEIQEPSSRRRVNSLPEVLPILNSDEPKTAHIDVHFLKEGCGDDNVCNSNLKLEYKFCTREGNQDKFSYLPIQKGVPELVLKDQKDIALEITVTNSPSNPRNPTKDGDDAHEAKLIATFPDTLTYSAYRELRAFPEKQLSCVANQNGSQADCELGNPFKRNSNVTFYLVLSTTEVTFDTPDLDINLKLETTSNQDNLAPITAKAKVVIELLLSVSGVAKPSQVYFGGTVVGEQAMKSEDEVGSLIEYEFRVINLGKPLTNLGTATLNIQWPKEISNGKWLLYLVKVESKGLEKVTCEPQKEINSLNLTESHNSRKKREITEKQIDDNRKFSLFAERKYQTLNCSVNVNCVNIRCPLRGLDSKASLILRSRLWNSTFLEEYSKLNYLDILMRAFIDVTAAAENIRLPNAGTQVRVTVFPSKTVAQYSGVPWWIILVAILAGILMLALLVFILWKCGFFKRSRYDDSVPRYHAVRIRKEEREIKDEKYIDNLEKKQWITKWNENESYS
Chain of Integrin α6β1 (P05556 21-798): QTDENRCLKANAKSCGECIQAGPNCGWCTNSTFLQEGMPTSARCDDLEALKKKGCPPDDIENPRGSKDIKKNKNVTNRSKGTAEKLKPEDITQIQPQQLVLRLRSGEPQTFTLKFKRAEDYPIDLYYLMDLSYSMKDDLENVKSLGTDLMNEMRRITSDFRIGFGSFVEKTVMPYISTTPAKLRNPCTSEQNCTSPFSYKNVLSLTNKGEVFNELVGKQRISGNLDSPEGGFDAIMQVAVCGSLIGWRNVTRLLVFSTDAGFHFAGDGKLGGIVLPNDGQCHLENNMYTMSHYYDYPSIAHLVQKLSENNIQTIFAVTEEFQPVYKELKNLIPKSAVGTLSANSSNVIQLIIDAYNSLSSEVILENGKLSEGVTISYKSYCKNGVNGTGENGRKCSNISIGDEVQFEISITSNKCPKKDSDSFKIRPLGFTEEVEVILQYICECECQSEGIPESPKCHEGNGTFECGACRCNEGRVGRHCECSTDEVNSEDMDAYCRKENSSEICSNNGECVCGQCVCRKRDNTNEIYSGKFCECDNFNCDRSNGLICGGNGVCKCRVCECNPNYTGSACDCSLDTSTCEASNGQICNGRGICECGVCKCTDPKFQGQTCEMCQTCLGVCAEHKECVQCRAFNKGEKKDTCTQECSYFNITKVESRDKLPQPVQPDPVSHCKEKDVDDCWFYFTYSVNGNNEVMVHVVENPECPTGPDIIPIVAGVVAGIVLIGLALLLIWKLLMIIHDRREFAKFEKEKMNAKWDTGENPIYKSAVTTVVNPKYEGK

human ES cells [9] = conditions: teratomas after engraftment into SCID mice; cited from earlier work
mouse ES cells = conditions: without LIF or feeder cells; cited from earlier work
hES cells [10] = assay: Clonal survival of individualized hES cells (Example 4); type: cell-based, human; conditions: mTeSR1 medium, 250 cells per cm^2, 5 days, alkaline phosphatase staining
Method: hES cells were plated in mTeSR1 medium on different coatings at a density of 250 cells per cm^2 and monitored after 5 days in culture using an alkaline phosphatase staining kit.
Next, combinations of laminin-521 and E-Cadherin were tested to determine whether the combinations could sustain clonal survival of the cells. Fixed amounts of laminin-521 were used for the cell culture dish coating in combination with titrated E-Cadherin.
Additional tests were performed to test the effects of various modifications to the mTeSR1 medium. A mixture of E-Cadherin to laminin-521 in a ratio of about 1:10 w/w was used to coat the plates. […] Time-lapse photography of the cells confirmed that laminin-521/E-Cadherin coatings facilitated cell survival through proliferation of the single cells, not through the aggregation of different cells.

Question: What does the source list for COc1cccc(-c2cc(=O)c3ccccc3o2)c1N [PD 98059]?
Answer: hES cell survival 24 hours after plating on LN-521 with pathway inhibitor (hES cells [1]): did not affect the survival that severely; efficacy of inhibitor treatment by western blot [2]: confirmed

Question: With C[C@@H](N)[C@H]1CC[C@H](C(=O)Nc2ccncc2)CC1 [Y-27632, reference compound] as the molecule, how does the “cells remaining attached after one day” value (human ES cells [3]; O3 medium treated with ROCK inhibitor Y-27632, 5 coatings) read?
Answer: The value was “remained attached on all 5 coatings”.

Question: What about the “survival 24 hours after plating in the presence of ROCK inhibitor” value (hES cells [4]; Matrigel, LN-111, LN-511, LN-521 or mixture coatings) of the same molecule?
Answer: Its value is “survived on all surfaces”.

Question: With “LN-111: mouse laminin-111 (Invitrogen), indicated as LN-111 if not otherwise stated” as the molecule, how does the “cells remaining attached / surviving 24 hours after plating” value (human ES cells [3]) read?
Answer: Its value is “almost no cells remained attached”.

Question: And the “survival after 24 hours” value (hES cells [4])?
Answer: The value was “almost no cells had survived”.

Question: And the “survival 24 hours after plating” value (hES cells [4])?
Answer: The value was “did not survive”.

Question: With “LN-121: human recombinant laminin with α1, β2 and γ1 chains from triple-transfected HEK293 cells” as the molecule, how does the “survival 24 hours after plating” value (hES cells [4]) read?
Answer: Its value is “failed to survive”.

Question: For “LN-511: human recombinant laminin-511 coating protein”, which “adhesion of human ES cells at 1 hour” value (human ES cells [5]) is on record?
Answer: Its value is “roughly the same”.

Question: And the “cells remaining attached / surviving 24 hours after plating” value (human ES cells [3])?
Answer: The value was “at a less extent”.

Question: What about the “survival after one day in culture” value [6] of the same molecule?
Answer: Its value is “in most cases”.

Question: What about the “spreading of the cells after one hour compared with Matrigel or LN-111” value (hES cells [7]) of the same molecule?
Answer: The value was “clearly better”.

Question: What about the “survival after 24 hours” value (hES cells [4]) of the same molecule?
Answer: The value was “very few”.

Question: What about the “survival 24 hours after plating” value (hES cells [4]) of the same molecule?
Answer: The value was “did so as single cells”.

Question: And the “phosphorylation of MLC compared with cells on Matrigel and LN-111” value [8]?
Answer: Its value is “even higher”.

Question: And the “binding affinity of integrin α6β1 compared with LN-111” value (Integrin α6β1)?
Answer: Its value is “higher”.

Question: What about the “pluripotency of human ES cells grown over 3 months” value (human ES cells [9]) of the same molecule?
Answer: Its value is “maintain pluripotency”.

Question: And the “duration of self-renewal of mouse ES cells” value (mouse ES cells)?
Answer: The value was “over 5 months”.

Question: With “human recombinant LN-111: human recombinant laminin with α1, β1 and γ1 chains from triple-transfected HEK293 cells” as the molecule, how does the “survival 24 hours after plating” value (hES cells [4]) read?
Answer: The value was “failed to survive”.

B1: E-Cadherin: epithelial-cadherin used as cell culture dish coating (protein, UniProt P12830 155-882, looked up)
Cadherin-1: DWVIPPISCPENEKGPFPKNLVQIKSNKDKEGKVFYSITGQGADTPPVGVFIIERETGWLKVTEPLDRERIATYTLFSHAVSSNGNAVEDPMEILITVTDQNDNKPEFTQEVFKGSVMEGALPGTSVMEVTATDADDDVNTYNAAIAYTILSQDPELPDKNMFTINRNTGVISVVTTGLDRESFPTYTLVVQAADLQGEGLSTTATAVITVTDTNDNPPIFNPTTYKGQVPENEANVVITTLKVTDADAPNTPAWEAVYTILNDDGGQFVVTTNPVNNDGILKTAKGLDFEAKQQYILHVAVTNVVPFEVSLTTSTATVTVDVLDVNEAPIFVPPEKRVEVSEDFGVGQEITSYTAQEPDTFMEQKITYRIWRDTANWLEINPDTGAISTRAELDREDFEHVKNSTYTALIIATDNGSPVATGTGTLLLILSDVNDNAPIPEPRTIFFCERNPKPQVINIIDADLPPNTSPFTAELTHGASANWTIQYNDPTQESIILKPKMALEVGDYKINLKLMDNQNKDQVTTLEVSVCDCEGAAGVCRKAQPVEAGLQIPAILGILGGILALLILILLLLLFLRRRAVVKEPLLPPEDDTRDNVYYYDEEGGGEEDQDFDLSQLHRGLDARPEVTRNDVAPTLMSVPRYLPRPANPDEIGNFIDENLKAADTDPTAPPYDSLLVFDYEGSGSEAASLSSLNSSESDKDQDYDYLNEWGNRFKKLADMYGGGEDD
Question: For B1, which “clonal survival of individualized hES cells” value (hES cells [10]) is on record?
Answer: Its value is “Neither laminin-521 nor E-Cadherin alone permitted efficient clonal survival”.
